From patent publication US20210188843A1, “QUINOLINE COMPOUNDS AND THEIR PREPARATION AND USE AS ANTIMALARIAL AGENTS” (The United States of America,as represented by the …, priority 2018, published 2021)
In brackets after ≈: the same amount, converted by molar mass. Read-outs that look alike come from different tables or passages of the source.

Tests used:
[1] = PAMPA permeability; format: in vitro ADME
[2] = Solubility pH 7.4; format: physicochemical; details: aqueous buffer
[3] = test system: Asexual parasites of P. falciparum strain 3D7; assay: In vitro drug activity on asexual parasites (SYBR Green assay); format: cell-based; details: Plasmodium falciparum, P. falciparum 3D7 asexual stage, 72 h, read-out: Asexual EC50
How it was run: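 3D7 asexual cultures at 0.5% parasitemia and 2% hematocrit were exposed to drug (DMSO <0.5%) for 72 h under standard culture conditions, in duplicate with no-drug and RBC-only controls. After freeze-thaw lysis, SYBR Green I lysis buffer was added for 30 min at room temperature; fluorescence was read at 490 nm excitation/520 nm emission.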

[4] = Microsomal stability (rat); format: in vitro ADME; details: rat microsomes
[5] = Table 1, read-out: Microsomal Stability (rat) T1/2
[6] = Table 3, read-out: Microsomal Stability (rat) T1/2

Row | Compound | Papp ([1]; Table 1) [×10⁻⁶ cm/s] | solubility ([2]; Table 1) [µg/mL] | EC50 ([3]; Table 1) [nM] | half-life [4, 5] [min] | also measured
1 | Cc1cc(N2CC3(COC3)C2)c(C#N)cc1-n1c(=N)n(C)c2cnc3ccc(-c4ccc(Cl)cc4)cc3c21 [Compound 121, 5-(8-(4-chlorophenyl)-2-imino-3-methyl-2,3-dihydro-1H-imidazo[4,5-c]quinolin-1-yl)-4-methyl-2-(2-oxa-6-azaspiro[3.3]heptan-6-yl)benzonitrile] | 6.2 | 1.3 (≈ 2.5 µM) | 148 | > 30 | –
2 | CC(=O)NC1CCN(c2cc(C)c(-n3c(=N)n(C)c4cnc5ccc(-c6ccc(Cl)cc6)cc5c43)cc2C#N)CC1 [Compound 132, N-(1-(4-(8-(4-chlorophenyl)-2-imino-3-methyl-2,3-dihydro-1H-imidazo[4,5-c]quinolin-1-yl)-2-cyano-5-methylphenyl)piperidin-4-yl)acetamide] | 7 | 4.6 (≈ 8.15 µM) | 54.9 | > 30 | –
3 | Cc1ccc(C#N)cc1-n1c(=N)n(C)c2cnc3ccc(-c4cnc5ccccc5c4)cc3c21 [Compound 105, 3-(2-imino-3-methyl-8-(quinolin-3-yl)-2,3-dihydro-1H-imidazo[4,5-c]quinolin-1-yl)-4-methylbenzonitrile] | 1150 | > 44 | 714 | > 30 | –
4 | Cc1cc(N2CCC2)c(C#N)cc1-n1c(=N)n(C)c2cnc3ccc(-c4ccc(Cl)cc4)cc3c21 [Compound 110, 2-(azetidin-1-yl)-5-(8-(4-chlorophenyl)-2-imino-3-methyl-2,3-dihydro-1H-imidazo[4,5-c]quinolin-1-yl)-4-methylbenzonitrile] | 176 | < 1 | 373 | > 30 | –
5 | Cc1ccc(C#N)cc1-n1c(=N)n(C)c2cnc3ccc(-c4cccc(Cl)c4)cc3c21 [Compound 33, 3-(8-(3-chlorophenyl)-2-imino-3-methyl-2,3-dihydro-1H-imidazo[4,5-c]quinolin-1-yl)-4-methylbenzonitrile] | 1820 | 14.5 (≈ 34.2 µM) | 297 | > 30 | –
6 | Cn1c(=N)n(-c2ccccc2C#N)c2c3cc(-c4ccc(Cl)cc4)ccc3ncc21 [Compound 68, 2-(8-(4-chlorophenyl)-2-imino-3-methyl-2,3-dihydro-1H-imidazo[4,5-c]quinolin-1-yl)benzonitrile] | 142 | > 41 | 1450 | > 30 | –
7 | CSc1ccc(C#N)cc1-n1/c(=N/C#N)n(C)c2cnc3ccc(-c4ccc(Cl)cc4)cc3c21 [Compound 18, (E)-N-(8-(4-chlorophenyl)-1-(5-cyano-2-(methylthio)phenyl)-3-methyl-1,3-dihydro-2H-imidazo[4,5-c]quinolin-2-ylidene)cyanamide] | 247 | < 1 | 564 | 16.9 | –
8 | Cc1ccc(C(N)=O)cc1-n1c(=N)n(C)c2cnc3ccc(-c4ccc(Cl)cc4)cc3c21 [Compound 92, 3-(8-(4-chlorophenyl)-2-imino-3-methyl-2,3-dihydro-1H-imidazo[4,5-c]quinolin-1-yl)-4-methylbenzamide] | 2 | > 44 | – | > 30 | –
9 | COc1ccc(-c2ccc3ncc4c(c3c2)n(-c2nccnc2C)c(=N)n4C)cc1OC | – | – | – | – | Papp ([1]; Table 3): 1240 ×10⁻⁶ cm/s; solubility ([2]; Table 3): > 63 µg/mL; EC50 ([3]; Table 3): 58 nM
10 | Cn1c(=N)n(-c2ccccc2O)c2c3cc(-c4ccc(Cl)cc4)ccc3ncc21 [Compound 83, 2-(8-(4-chlorophenyl)-2-imino-3-methyl-2,3-dihydro-1H-imidazo[4,5-c]quinolin-1-yl)phenol] | 859 | < 1 | 593 | – | –
11 | Cc1cc(N2CCNC(C)C2)c(C#N)cc1-n1c(=N)n(C)c2cnc3ccc(-c4ccc(Cl)cc4)cc3c21 (stereo not shown) [Compound 124, 5-(8-(4-chlorophenyl)-2-imino-3-methyl-2,3-dihydro-1H-imidazo[4,5-c]quinolin-1-yl)-4-methyl-2-(3-methylpiperazin-1-yl)benzonitrile] | – | 1.9 (≈ 3.64 µM) | 217 | > 30 | –
12 | N#Cc1cccc(-n2c(=N)ccc3cnc4ccc(-c5ccc(Cl)cc5)cc4c32)c1 | – | – | – | – | solubility ([2]; Table 2): 25.9 µg/mL (≈ 63.7 µM); EC50 ([3]; Table 2): 186 nM; half-life ([4]; Table 2, read-out: Microsomal Stability (rat) T1/2): > 30 min
13 | Cc1ccc(C#N)cc1-n1c(=N)n(C)c2cnc3ccc(-c4ccc5c(c4)CC(=O)N5)cc3c21 [Compound 3, 3-(2-imino-3-methyl-8-(2-oxoindolin-5-yl)-2,3-dihydro-1H-imidazo[4,5-c]quinolin-1-yl)-4-methylbenzonitrile] | – | 3.6 (≈ 8.1 µM) | 20.3 | > 30 | –
14 | Cc1ncncc1-n1c(=N)n(C)c2cnc3ccc(-c4ccc(N)nc4)cc3c21 | – | – | – | – | solubility ([2]; Table 3): > 38 µg/mL; EC50 ([3]; Table 3): 164 nM; half-life [4, 6]: > 30 min
15 | Cn1c(=N)n(C2CCN(C3CCNCC3)CC2)c2c3cc(-c4ccc(Cl)cc4)ccc3ncc21 [Compound 97, 1-([1,4′-bipiperidin]-4-yl)-8-(4-chlorophenyl)-3-methyl-1,3-dihydro-2H-imidazo[4,5-c]quinolin-2-imine] | – | > 47 | 5100 | > 30 | –
16 | Cc1ncncc1-n1c(=N)n(C)c2cnc3ccc(-c4ccc(Cl)c(C(F)(F)F)c4)cc3c21 | – | – | – | – | solubility ([2]; Table 3): 10.6 µg/mL (≈ 22.6 µM); EC50 ([3]; Table 3): 160 nM; half-life [4, 6]: > 30 min
17 | Cc1ccc(C#N)cc1-n1c(=N)n(C)c2cnc3ccc(-c4ccc(C(N)=O)s4)cc3c21 [Compound 1, 5-(1-(5-cyano-2-methylphenyl)-2-imino-3-methyl-2,3-dihydro-1H-imidazo[4,5-c]quinolin-8-yl)thiophene-2-carboxamide] | – | 14.2 (≈ 32.4 µM) | 8.36 | > 30 | –
18 | CCCCOC(=O)/N=c1\n(C)c2cnc3ccc(-c4ccc(Cl)cc4)cc3c2n1-c1cc(C#N)ccc1C [Compound 89, butyl (E)-(8-(4-chlorophenyl)-1-(5-cyano-2-methylphenyl)-3-methyl-1,3-dihydro-2H-imidazo[4,5-c]quinolin-2-ylidene)carbamate] | – | < 1 | 601 | 6.2 | –
19 | Cn1c(=N)n(-c2ccc(N3CCNCC3)c(C(F)(F)F)c2)c2c3cc(-c4ccc(Cl)cc4)ccc3ncc21 [Compound 72, 8-(4-chlorophenyl)-3-methyl-1-(4-(piperazin-1-yl)-3-(trifluoromethyl)phenyl)-1,3-dihydro-2H-imidazo[4,5-c]quinolin-2-imine] | – | < 1 | 258 | > 30 | –
20 | CC(=O)c1cccc(-n2c(=N)n(C)c3cnc4ccc(-c5ccc(Cl)cc5)cc4c32)c1 [Compound 74, 1-(3-(8-(4-chlorophenyl)-2-imino-3-methyl-2,3-dihydro-1H-imidazo[4,5-c]quinolin-1-yl)phenyl)ethan-1-one] | – | > 42 | 445 | > 30 | –
21 | Cn1c(=N)n(-c2nccc(O)n2)c2c3cc(-c4cccc(F)c4)ccc3ncc21 | – | – | – | – | solubility ([2]; Table 3): < 1 µg/mL; EC50 ([3]; Table 3): 18800 nM; half-life [4, 6]: > 30 min
22 | CCn1c(=N)n(-c2cc(C#N)ccc2C)c2c3cc(-c4ccc(Cl)cc4)ccc3ncc21 [Compound 93, 3-(8-(4-chlorophenyl)-3-ethyl-2-imino-2,3-dihydro-1H-imidazo[4,5-c]quinolin-1-yl)-4-methylbenzonitrile] | – | 13.6 (≈ 31.1 µM) | 813 | > 30 | –
23 | Cn1c(=N)n(-c2cc(C#N)ccc2F)c2c3cc(-c4ccc(Cl)cc4)ccc3ncc21 [Compound 10, 3-(8-(4-chlorophenyl)-2-imino-3-methyl-2,3-dihydro-1H-imidazo[4,5-c]quinolin-1-yl)-4-fluorobenzonitrile] | – | < 1 | 24.4 | > 30 | –
24 | Cc1cccc(-n2c(=N)n(C)c3cnc4ccc(-c5ccc(Cl)cc5)cc4c32)c1 [Compound 66, 8-(4-chlorophenyl)-3-methyl-1-(m-tolyl)-1,3-dihydro-2H-imidazo[4,5-c]quinolin-2-imine] | – | 4 (≈ 10 µM) | 382 | > 30 | –
25 | Cn1c(=N)n(C2CCN(C3CCOCC3)CC2)c2c3cc(-c4ccc(Cl)cc4)ccc3ncc21 [Compound 57, 8-(4-chlorophenyl)-3-methyl-1-(1-(tetrahydro-2H-pyran-4-yl)piperidin-4-yl)-1,3-dihydro-2H-imidazo[4,5-c]quinolin-2-imine] | – | > 47 | 2520 | > 30 | –
26 | Cc1ccc(C#N)cc1-n1c(=N)n(C)c2cnc3ccc(-c4ccccc4Cl)cc3c21 [Compound 62, 3-(8-(2-chlorophenyl)-2-imino-3-methyl-2,3-dihydro-1H-imidazo[4,5-c]quinolin-1-yl)-4-methylbenzonitrile] | – | 7.8 (≈ 18.4 µM) | 704 | 18.5 | –
27 | Cc1ccc(C#N)cc1-n1c(=N)n(C)c2cnc3ccc(C#Cc4ccccc4)cc3c21 [Compound 154, 3-(2-imino-3-methyl-8-(phenylethynyl)-2,3-dihydro-H-imidazo[4,5-c]quinolin-1-yl)-4-methylbenzonitrile] | – | 1.4 (≈ 3.39 µM) | 1750 | > 30 | –
28 | CCOc1ccc(C#N)cc1-n1c(=N)n(C)c2cnc3ccc(-c4ccc(Cl)cc4)cc3c21 [Compound 19, 3-(8-(4-chlorophenyl)-2-imino-3-methyl-2,3-dihydro-1H-imidazo[4,5-c]quinolin-1-yl)-4-ethoxybenzonitrile] | – | 26 (≈ 57.3 µM) | 778 | > 30 | –
